Primed or numbered codes have the meaning given here. [ ]: non-standard residue; d: D form. FAM = 5(6)-carboxyfluorescein; FAM″ = C-terminal FAM

The first assay concerns HeLa cells. In words: Evaluation of cell membrane permeability by flow cytometry. The following applies: 10 μM, 20 hours, compared with Example 15. In kind it is cell-based, human. On the procedure: As the eukaryotic cells, HeLa cells (established cell strain derived from a human cervical cancer cell) were used and the cell membrane permeability of the samples 1 to 15 was analyzed. In Examples 1 to 15, the prepared sample solutions 1 to 15 were used, respectively, and in Example 16, the FAM solution was used.
The HeLa cell was cultured in 10% fetal bovine serum (FBS)-containing Dulbecco's modified Eagle's medium (DMEM (Cat No. 044-29765, manufactured by FUJIFILM Wako Pure Chemical Corporation)), which is a culture medium.
The HeLa cell that adhered to a culture plate was cleaned with PBS and then, a 0.25%-trypsin/EDTA solution was added thereto, and incubation was performed for three minutes at 37° C. After the incubation, the aforementioned 10% FBS-containing DMEM was added to deactivate trypsin and then, five-minute centrifugal separation was performed at 150×g to precipitate the cells. After the supernatant generated by the centrifugal separation was removed, the 10% FBS-containing DMEM was added to the precipitate (cell pellet) to prepare a cell suspension of about 2×10^5 cells/mL. The cell suspension was added by 1 mL to a well of a commercially available six-hole (well) plate (manufactured by AGC TECHNO GLASS Co., Ltd.) so as to seed the cell (about 2×10^5 cells/well). In addition, the 2 mM sample solution 1 was diluted with the 10% FBS-containing DMEM to prepare the sample solution 1 in which the concentration of the sample 1 was 20 μM. Then, 1 mL of the 20 μM sample solution 1 was added to the well (that is, so that the concentration of the sample 1 became 10 μM and the DMSO concentration became 0.5% in the culture solution in the well). After that, the cell was incubated for 20 hours at 37° C. under a 5% CO2 condition.
After the 20-hour incubation, the culture supernatant was removed from the well and the cells in the well were cleaned twice with 1 mL of PBS. Next, 200 μL of the 0.25% trypsin/EDTA solution was added to the well and the incubation was performed for three minutes at 37° C. After the incubation, 400 μL of the 10% FBS-containing DMEM was added to the well to deactivate the trypsin. Subsequently, the cell suspension in the well was transferred to a tube and the cells were collected. After that, 600 μL of PBS was added further to the well to clean the well. Then, PBS in the well was transferred to the tube, so that the cells remaining in the well were collected in the tube. This tube was subjected to five-minute centrifugal separation at 4° C. under a condition of 210×g. After the centrifugal separation, the supernatant was removed and the precipitate (cell pellet) was suspended (cleaned) with 1 mL of PBS, which was followed by the centrifugal separation under the same condition as that described above. After this operation was repeated twice, the supernatant was removed and thus, the cells (cell pellet) cultured in a culture medium containing the sample 1 were obtained.
Regarding the obtained cells (cell pellet), the cell membrane permeability of the sample 1 was analyzed using a flow cytometer. As the flow cytometer, On-Chip Flowcytometer (manufactured by On-Chip Biotechnologies Co., LTD.) was used.
For such an analysis, the obtained cell pellet was suspended with 100 μL of on-chip T buffer to prepare a cell suspension for analysis.
Using the aforementioned flow cytometer, gating based on forward scatter (FSC) and side scatter (SSC) was performed to set a gate about a cell group to be analyzed, and the fluorescence intensity was measured about the cell group in this gate. Note that the analysis was performed so that the cell group contained at least 10000 cells. The fluorescence intensity was measured using a fluorescence detector FL2 of the flow cytometer (optimum detection wavelength around 543 nm) capable of detecting the fluorescence wavelength of FAM. […]
For orientation: A flow cytometer gives signals particle by particle.
For Ac-KKRTLRKSNRKkR-FAM [Example 12], the “value of MFI, comparison in words” value is reported as “high in particular”.

Staying with this assay, now noted: construct (additive) 10 μM, 0.5% DMSO in culture solution, 20 hours incubation at 37° C., FAM fluorescence, detector FL2.
In the case of “5(6)-carboxyfluorescein [Example 16, reference compound]”, the “MFI (median fluorescence intensity)” value stood at 10.6.
Regarding “Ac-KKRTLRKSNRKKR-FAM [Example 7] (Ac-KKRTLR[dK]SNRKKR-{FAM})”, the “MFI (median fluorescence intensity)” value was found to be 16.9.
Same read-out and setting: the same measure for “Ac-KKRTLRKSNRKKR-FAM [Example 15] (Ac-KKRTLRKSNRKKR-{FAM″}) [reference compound]”: 13.0; for “Ac-KKRTLRKSNRKKr-FAM (Ac-KKRTLRKSNRKK[dR]-{FAM″}) [Example 13]”: 15.2.
On the same count and under the same terms, for Ac-KKRTLRKSNRKkR-FAM [Example 12] the value was 33.8.
Same read-out and setting: the same measure for “Ac-KKRTLRKSNRkKR-FAM (Ac-KKRTLRKSNR[dK]KR-{FAM″}) [Example 11]”: 17.4.
In the case of “Ac-KKRTLRKSNrKKR-FAM (Ac-KKRTLRKSN[dR]KKR-{FAM″}) [Example 10]”, the “MFI (median fluorescence intensity)” value was determined as 15.5.
Same read-out and setting: for “Ac-KKRTLRKSnRKKR-FAM (Ac-KKRTLRKS[dN]RKKR-{FAM″}) [Example 9]” the value was 15.6.
The same measure, in the same setting: for “Ac-KKRTLRKsNRKKR-FAM (Ac-KKRTLRK[dS]NRKKR-{FAM″}) [Example 8]” the value was 14.3.
On the same count and under the same terms, the same measure for Ac-KKRTLrKSNRKKR-FAM [Example 6]: 17.5; for “Ac-KKRTlRKSNRKKR-FAM (Ac-KKRT[dL]RKSNRKKR-{FAM″}) [Example 5]”: 16.5; for “Ac-KKRtLRKSNRKKR-FAM (Ac-KKR[dT]LRKSNRKKR-{FAM″}) [Example 4]”: 15.9.
For “Ac-KKrTLRKSNRKKR-FAM (Ac-KK[dR]TLRKSNRKKR-{FAM″}) [Example 3]”, the “MFI (median fluorescence intensity)” value is 13.9.
The same measure, in the same setting: for “Ac-KkRTLRKSNRKKR-FAM (Ac-K[dK]RTLRKSNRKKR-{FAM″}) [Example 2]” the value was 14.1; for “Ac-kKRTLRKSNRKKR-FAM (Ac-[dK]KRTLRKSNRKKR-{FAM″}) [Example 1]”, 13.9.
Still for that read-out and setting: for “Ac-kkrtlrksnrkkr-FAM (Ac-[dK][dK][dR][dT][dL][dR][dK][dS][dN][dR][dK][dK][dR]-{FAM″}) [Example 14]” the value was 16.1.

Source of the values: patent US20260055138A1, “CARRIER PEPTIDE FRAGMENT AND USE THEREOF” (TOAGOSEI CO., LTD., priority 2022, published 2026).
